What all share (experiment): HPLC-RI of hydrolysis products
Holding throughout (assay type): biochemical

Assay [1] has as its target T1, BAD0423 (Bifidobacterium adolescentis, UniProt A1A0H1).
T1 construct: gene BAD_0423; full length, N-terminal His-tag (pET28a), no signal peptide, E. coli BL21(DE3), TALON purified
T1 sequence (A1A0H1 1-564): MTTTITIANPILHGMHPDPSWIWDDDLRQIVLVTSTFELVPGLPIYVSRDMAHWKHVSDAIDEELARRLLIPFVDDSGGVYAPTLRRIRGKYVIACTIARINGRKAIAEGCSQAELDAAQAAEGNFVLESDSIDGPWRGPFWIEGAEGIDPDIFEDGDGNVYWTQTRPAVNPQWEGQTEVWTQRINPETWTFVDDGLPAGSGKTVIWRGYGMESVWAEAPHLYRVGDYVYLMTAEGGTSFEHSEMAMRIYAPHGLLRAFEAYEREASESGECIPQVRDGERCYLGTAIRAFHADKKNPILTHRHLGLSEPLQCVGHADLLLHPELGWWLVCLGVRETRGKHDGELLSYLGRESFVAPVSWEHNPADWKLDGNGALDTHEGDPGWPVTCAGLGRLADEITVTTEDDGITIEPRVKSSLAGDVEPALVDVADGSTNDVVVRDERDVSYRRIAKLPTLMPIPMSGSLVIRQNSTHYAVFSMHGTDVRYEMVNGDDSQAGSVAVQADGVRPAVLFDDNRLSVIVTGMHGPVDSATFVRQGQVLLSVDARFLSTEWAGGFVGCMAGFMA
Conditions: 10 mM substrate, 50 μg/mL enzyme, 20 mM sodium phosphate pH 6.5, 37 °C, 1 h; products xylose and xylobiose.

In assay [2] the target is T2, BAD0428 (Bifidobacterium adolescentis, UniProt A1A0H6).
T2 construct: gene xynB; full length, N-terminal His-tag (pET28a), no signal peptide, E. coli BL21(DE3), TALON purified
T2 sequence (A1A0H6 1-543): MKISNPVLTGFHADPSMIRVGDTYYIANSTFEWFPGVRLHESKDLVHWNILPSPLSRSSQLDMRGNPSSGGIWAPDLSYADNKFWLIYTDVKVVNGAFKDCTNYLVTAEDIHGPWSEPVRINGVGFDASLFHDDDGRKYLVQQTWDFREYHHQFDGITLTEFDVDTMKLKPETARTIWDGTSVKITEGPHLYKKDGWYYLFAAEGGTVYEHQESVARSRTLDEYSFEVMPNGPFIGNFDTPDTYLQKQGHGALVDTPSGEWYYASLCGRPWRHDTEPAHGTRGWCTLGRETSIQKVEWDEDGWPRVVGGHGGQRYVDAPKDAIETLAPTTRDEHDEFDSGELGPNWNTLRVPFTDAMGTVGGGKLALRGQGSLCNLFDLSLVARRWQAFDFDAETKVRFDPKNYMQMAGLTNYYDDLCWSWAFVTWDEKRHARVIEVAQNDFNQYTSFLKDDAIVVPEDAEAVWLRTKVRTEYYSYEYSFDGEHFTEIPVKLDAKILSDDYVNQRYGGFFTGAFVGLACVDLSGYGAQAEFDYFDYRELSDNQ
Conditions: 10 mM substrate, 50 μg/mL enzyme, 20 mM sodium phosphate pH 6.5, 37 °C, 1 h; product xylose.

Assay [3] has as its target T3, BAD1527 (Bifidobacterium adolescentis, UniProt A1A3M5).
T3 construct: gene xynD; full length, N-terminal His-tag (pET28a), no signal peptide, E. coli BL21(DE3), TALON purified
T3 sequence (A1A3M5 1-345): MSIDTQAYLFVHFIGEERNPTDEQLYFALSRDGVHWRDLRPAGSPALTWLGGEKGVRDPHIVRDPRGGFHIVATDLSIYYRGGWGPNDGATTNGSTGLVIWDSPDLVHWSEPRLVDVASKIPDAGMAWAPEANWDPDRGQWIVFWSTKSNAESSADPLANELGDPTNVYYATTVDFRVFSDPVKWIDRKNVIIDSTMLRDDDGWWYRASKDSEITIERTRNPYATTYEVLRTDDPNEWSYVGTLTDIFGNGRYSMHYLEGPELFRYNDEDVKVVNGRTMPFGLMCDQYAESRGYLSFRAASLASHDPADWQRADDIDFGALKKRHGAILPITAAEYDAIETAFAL
Conditions: 10 mM substrate, 50 μg/mL enzyme, 20 mM sodium phosphate pH 6.5, 37 °C, 1 h; weak substrate.

Turning to `OC1OC[C@@H](O[C@@H]2OC[C@@H](O)[C@H](O[C@@H]3OC[C@@H](O)[C@H](O)[C@H]3O)[C@H]2O)[C@H](O)[C@H]1O` (stereo partly drawn) [DX3, 2^3-β-D-xylosyl-xylobiose], the specific activity entry in assay [1] was “BAD0423 showed low activities on X2 and X3 but high activity on DX3”; in assay [2], “specific activity of BAD0423, BAD0428, and BAD1527 on DX3 was determined by HPLC”; in assay [3], “specific activity of BAD0423, BAD0428, and BAD1527 on DX3 was determined by HPLC”.

Values taken from publication PMC7142710, “Identification of a Key Enzyme for the Hydrolysis of β-(1→3)-Xylosyl Linkage in Red Alga Dulse Xylooligosaccharide from Bifidobacterium Adolescentis” (Marine Drugs, 2020).
